Reference: PubChem BioAssay AID248 (DTP/NCI, 2004)
Where “and” joins values, the source holds several entries; their conditions need not be identical. Equal entries are not always repeated. Toxic doses and inconclusive results are not listed. No stated cut-off is given here; in the data, active means T/C of 150% or more; inactive means T/C below 125%.

Test system: L1210 leukemia ip in BDF1 mice, survival T/C
Test: NCI In Vivo Anticancer Drug Screen. Data for tumor model L1210 Leukemia (intraperitoneal) in B6D2F1 (BDF1) mice
Details: endpoint: mean survival time, higher = longer survival
Method in brief: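 Each compound was tested against a transplantable tumor grown in mice. The endpoint was survival, with treated animals benchmarked against vehicle controls as a simple ratio.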

[1] = dose: 100.0 mg/kg/injection, schedule: Q04DX003 (ip), vehicle: saline with Tween-80
[2] = dose: 200.0 mg/kg/injection, schedule: Q04DX003 (ip), vehicle: saline with Tween-80
[3] = dose: 400.0 mg/kg/injection, schedule: Q04DX003 (ip), vehicle: saline with Tween-80
[4] = dose: 100.0 mg/kg/injection, schedule: Q04DX002 (ip), vehicle: saline with Tween-80
[5] = dose: 200.0 mg/kg/injection, schedule: Q04DX002 (ip), vehicle: saline with Tween-80
[6] = dose: 100.0 mg/kg/injection, schedule: Q04DX002 (ip), vehicle: Klucel (hydroxypropylcellulose) (HPC)
[7] = dose: 200.0 mg/kg/injection, schedule: Q04DX002 (ip), vehicle: Klucel (hydroxypropylcellulose) (HPC)
[8] = dose: 400.0 mg/kg/injection, schedule: Q04DX002 (ip), vehicle: Klucel (hydroxypropylcellulose) (HPC)
[9] = dose: 100.0 mg/kg/injection, schedule: Q01DX001 (ip), vehicle: saline
[10] = dose: 200.0 mg/kg/injection, schedule: Q01DX001 (ip), vehicle: saline
[11] = dose: 400.0 mg/kg/injection, schedule: Q01DX001 (ip), vehicle: saline
[12] = dose: 50.0 mg/kg/injection, schedule: Q01DX009 (ip), vehicle: Klucel (hydroxypropylcellulose) (HPC)
[13] = dose: 100.0 mg/kg/injection, schedule: Q01DX009 (ip), vehicle: Klucel (hydroxypropylcellulose) (HPC)
[14] = dose: 200.0 mg/kg/injection, schedule: Q01DX009 (ip), vehicle: Klucel (hydroxypropylcellulose) (HPC)
[15] = dose: 100.0 mg/kg/injection, schedule: Q04DX003 (ip), vehicle: Klucel (hydroxypropylcellulose) (HPC)
[16] = dose: 200.0 mg/kg/injection, schedule: Q04DX003 (ip), vehicle: Klucel (hydroxypropylcellulose) (HPC)
[17] = dose: 400.0 mg/kg/injection, schedule: Q01DX009 (ip), vehicle: Klucel (hydroxypropylcellulose) (HPC)

Measured: T/C

Cn1cc(C2=CC(=O)C=CC2=O)c2ccccc21
inactive: dose: 5.0 mg/kg/injection, schedule: Q01DX001 (ip), vehicle: saline 102 % of control | dose: 10.0 mg/kg/injection, schedule: Q01DX001 (ip), vehicle: saline 111 % of control | dose: 20.0 mg/kg/injection, schedule: Q01DX001 (ip), vehicle: saline 104 % of control | dose: 40.0 mg/kg/injection, schedule: Q01DX001 (ip), vehicle: saline 98 % of control

CCCCOB(OCCCC)C(C)C(C#N)C#N (stereo unspecified)
inactive: dose: 100.0 mg/kg/injection, schedule: Q01DX009 (ip), vehicle: saline sonified 94 % of control | [1] 110 % of control | dose: 200.0 mg/kg/injection, schedule: Q01DX009 (ip), vehicle: saline sonified 92 % of control | [2] 98 % of control | dose: 400.0 mg/kg/injection, schedule: Q01DX009 (ip), vehicle: saline sonified 89 % of control | [3] 93 % of control

COCCN(CCOC)C(=O)Nc1cccc(Cl)c1
inactive: [4] 90 % of control | [5] 100 % of control | dose: 400.0 mg/kg/injection, schedule: Q04DX002 (ip), vehicle: saline with Tween-80 106 % of control

CC(Cc1ccccc1)Nc1ccccn1 (stereo unspecified)
inactive: dose: 75.0 mg/kg/injection, schedule: Q01DX001 (ip), vehicle: other 97 % of control | dose: 150.0 mg/kg/injection, schedule: Q01DX001 (ip), vehicle: other 97 % of control | dose: 300.0 mg/kg/injection, schedule: Q01DX001 (ip), vehicle: other 95 % of control

COc1c(OC)c(OC)c2c(=O)cc(-c3ccc4c(c3)OCO4)oc2c1OC
inactive: dose: 50.0 mg/kg/injection, schedule: Q01DX001 (ip), vehicle: other 103 % of control | dose: 100.0 mg/kg/injection, schedule: Q01DX001 (ip), vehicle: other 100 % of control | dose: 200.0 mg/kg/injection, schedule: Q01DX001 (ip), vehicle: other 100 % of control | dose: 400.0 mg/kg/injection, schedule: Q01DX001 (ip), vehicle: other 91 % of control

CC(=O)OCC(O)C(O)C(O)C(O)C=O (stereo unspecified) (tested in a mixture with another compound)
inactive: [6] 92 % of control | [7] 103 % of control | [8] 95 % of control

COC(=O)C1(C(=O)OC)C2C(=O)C3C(C21)C3(C(=O)OC(C)(C)C)C(=O)OC(C)(C)C (stereo unspecified)
inactive: dose: 100.0 mg/kg/injection, schedule: Q01DX009 (ip), vehicle: saline with Tween-80 95 % of control | [1] 101 % of control and 98 % of control | dose: 200.0 mg/kg/injection, schedule: Q01DX009 (ip), vehicle: saline with Tween-80 92 % of control | [2] 102 % of control and 88 % of control | dose: 400.0 mg/kg/injection, schedule: Q01DX009 (ip), vehicle: saline with Tween-80 92 % of control | [3] 91 % of control and 111 % of control

Nc1ccc(OCCNC(=O)c2ccc(S(=O)(=O)F)cc2)c(Cl)c1
inactive: dose: 100.0 mg/kg/injection, schedule: Q01DX001 (ip), vehicle: saline with Tween-80 94 % of control | dose: 200.0 mg/kg/injection, schedule: Q01DX001 (ip), vehicle: saline with Tween-80 89 % of control | dose: 400.0 mg/kg/injection, schedule: Q01DX001 (ip), vehicle: saline with Tween-80 96 % of control

O=P(O)(O)CN(CP(=O)(O)O)CP(=O)(O)O
inactive: [9] 101 % of control | [10] 94 % of control | [11] 89 % of control

C1CC2CC1C1OC21 (stereo unspecified)
inactive: dose: 50.0 mg/kg/injection, schedule: Q01DX001 (ip), vehicle: saline 103 % of control | [9] 100 % of control | dose: 100.0 mg/kg/injection, schedule: Q01DX009 (ip), vehicle: other 100 % of control | [10] 105 % of control | dose: 200.0 mg/kg/injection, schedule: Q01DX009 (ip), vehicle: other 101 % of control | [11] 103 % of control | dose: 400.0 mg/kg/injection, schedule: Q01DX009 (ip), vehicle: other 94 % of control

O=C1/C(=C/c2ccccc2[N+](=O)[O-])Cc2ccccc21
inactive: [12] 107 % of control | [13] 94 % of control | [14] 93 % of control

Cc1c(Cl)c(C)c(Cl)c(O)c1Cl
inactive: [1] 97 % of control | [2] 96 % of control | [3] 97 % of control

CNC(Cc1ccccc1)c1ccco1 (stereo unspecified)
inactive: [12] 104 % of control | [13] 104 % of control | [4] 107 % of control | [14] 102 % of control | [5] 110 % of control

CC(C)CN(CC(=O)N1CC(=O)Nc2ccccc21)CC(C)C
inactive: dose: 100.0 mg/kg/injection, schedule: Q01DX009 (ip), vehicle: saline 94 % of control | dose: 100.0 mg/kg/injection, schedule: Q04DX003 (ip), vehicle: saline 95 % of control | dose: 200.0 mg/kg/injection, schedule: Q01DX009 (ip), vehicle: saline 87 % of control | dose: 200.0 mg/kg/injection, schedule: Q04DX003 (ip), vehicle: saline 95 % of control | dose: 400.0 mg/kg/injection, schedule: Q04DX003 (ip), vehicle: saline 92 % of control

CCCCCCCCCCCCCCCC(CCCC)C1CCCCC1 (stereo unspecified)
inactive: dose: 100.0 mg/kg/injection, schedule: Q01DX001 (ip), vehicle: saline + alcohol 100 % of control | dose: 200.0 mg/kg/injection, schedule: Q01DX001 (ip), vehicle: saline + alcohol 98 % of control | dose: 400.0 mg/kg/injection, schedule: Q01DX001 (ip), vehicle: saline + alcohol 96 % of control

C=C(Br)CNC(N)=S
inactive: [12] 96 % of control | [13] 100 % of control | [15] 94 % of control | [14] 102 % of control | [16] 95 % of control

CC1(c2ccc(Cl)cc2)NC(=O)N(CC(N)=O)C1=O (stereo unspecified)
inactive: [1] 105 % of control | [3] 122 % of control

O=C1c2ccccc2C(=O)N1c1ccccc1
inactive: [13] 98 % of control | [6] 91 % of control | [14] 98 % of control | [7] 94 % of control | [17] 95 % of control | [8] 88 % of control

CCOC(=O)c1ccc(NC(=O)Oc2cc(C)c(Cl)c(C)c2)cc1
inactive: [13] 95 % of control | [14] 90 % of control | [17] 96 % of control

ClC(Cl)C(Cl)(Cl)C(Cl)(Cl)Cl
inactive: [12] 96 % of control | [13] 94 % of control | [15] 95 % of control | [14] 98 % of control | [16] 108 % of control

COc1ccc(O)c(CC(C)C)c1
inactive: dose: 100.0 mg/kg/injection, schedule: Q04DX003 (ip), vehicle: acetone 96 % of control | dose: 200.0 mg/kg/injection, schedule: Q04DX003 (ip), vehicle: acetone 102 % of control | dose: 400.0 mg/kg/injection, schedule: Q04DX003 (ip), vehicle: acetone 93 % of control

CCOCC(=O)C(C#N)c1ccc(Cl)c(Cl)c1 (stereo unspecified)
inactive: dose: 100.0 mg/kg/injection, schedule: Q01DX001 (ip), vehicle: carboxymethylcellulose (CMC) 94 % of control
